Measurements: US11684592B2, “Multiresistant-tumour sensitiser” (Instituto Nacional de Neurologia Y Neurocirugia Manuel …, priority 2017, dated 2023)

Assays:
[1] = tested on: C6 cells from rat glioma; assay: DNA fragmentation assay; format: cell-based; conditions: curcumin 100 μM or Cur-[G2]-OH 300 μM, 24 h
Description: To determine DNA fragmentation, C6 cells (1×10^6) were seeded in Petri dishes (100 mm) at a confluence of 70%. They were treated with curcumin (100 μM) or Cur-[G2]-OH (300 μM) and incubated for 24 and 48 hours. Controls were incubated with vehicle only (DMSO or PBS respectively).
The DNA was extracted using Trizol (Invitrogen® 15596-026), according to the supplier's specifications, and quantified on a spectrophotometer (Genesys 8®). 20 μg of DNA from each sample was deposited on a 1.5% agarose gel. Electrophoresis was performed at 100 V for 90 minutes. The gel was stained with the Hydragreen™ dye (ACTGene ACT-IDM604) and DNA detection was performed using the ethidium bromide filter and UV light on the Chemidoc-It TS2 imager photodocument (UVP, CA).

[2] = tested on: C6 cells; assay: Determination of Reactive Oxygen Species (ROS); format: cell-based, rat; conditions: 1 hour; for generation of ROS: curcumin 2, 15, 30 or 100 μM or Cur-[G2]-OH 6, 45, 90 or 300 μM, without NAC; for generation of ROS in the presence of N-acetyl Cysteine (NAC): with NAC 400 μM
Description: Intracellular generation of ROS was evaluated in real time by fluorescence microscopy using the ENZ-51011 detection kit (Enzo® Life Sciences). 5×10^3 cells per well were grown in half-area 96 wells plates (Costar 3595®) and incubated for 24 hours. Then, were incubated for 1 hour, with curcumin (2, 15, 30 or 100 μM), or Cur-[G2]-OH (6, 45, 90 or 300 μM) alone or in the presence of the ROS inhibitor N-Acetyl Cysteine (NAC, 400 μM) according to the manufacturer's instructions. As controls, pyocyanin (200 μM) was used as an inducer and NAC […] as an inhibitor, or DMEM medium with or without DMSO as a negative control. At the end of treatment, the test solutions were withdrawn, and the ROS detection solution was added. The plates were observed under bright field and fluorescence microscopy with the GFP filter (λ=469-525 nm), in the Cytation 3® multimodal reader (BioTek®, USA), and the images were captured and analyzed with the Gen5 2.06 program (BioTek®, USA). The experiments were performed five times.

[3] = tested on: Beclin-1, p62, Nrf2, eIF2a and p-eIF2α in C6 cells; assay: Analysis of autophagy markers and Nrf2 pathway by Western blot; format: cell-based, rat; conditions: for levels of total eIF2-α (immunoblot) / phosphorylation of eIF2-α (p-eIF2-α, immunoblot): curcumin 2, 15 and 30 μM or Cur-[G2]-OH 6, 45 and 90 μM
Description: C6 cells were grown in 25 cm^2 culture bottles (Corning® N.Y.) to form a 70% confluent monolayer (approximately 4×10^6 cells) and treated with Cur-[G2]-OH (300 μM) for 24 hours. The cells were washed in cold PBS, and lysis buffer (50 mM Tris-HCl, 120 mM NaCl, 0.01% IGEPAL) was added with a protease inhibitor cocktail (Sigma® P8340) and centrifuged to recover the supernatant. Proteins were quantified by the Lowry method (Lowry et al. 1951).
[…] The membranes were blocked with skim milk and subsequently incubated with the respective primary antibody (Beclin1, ab62557; p62, ab91526; Nrf2, sc-30915; p-eIF2α, sc-12412; eIF2, sc-11386 or β-actin, sc-47778) under stirring overnight at 4° C. After incubation, the membranes were washed with a Tween 20 tris-base saline buffer (TBST) and incubated with the respective secondary antibody conjugated to horseradish peroxidase (SIGMA). The bands were visualized by chemiluminescence with the Western Blotting Luminol Reagent reagents (Santacruz Biotechnology®), and the ChemiDoc-It® TS2 Imaging System (UVP, LLC).

[4] = tested on: C6 cells from rat glioma; assay: Determination of apoptotic death by dual staining with propidium iodide and Hoechst 33342; format: cell-based; conditions: curcumin 100 μM or Cur-[G2]-OH 300 μM, 24 or 48 hours
Description: C6 cells from rat glioma (American Tissue Culture Collection, Rockville, Md., U.S.A. ATCC® CCL-107™) cultured under standard conditions in DMEM medium supplemented with Bovine Fetal Serum and 15% horse serum were used for the experiments.
1×10^4 C6 cells/well were cultured with 100 μl of Dulbecco's Modified Eagle's Medium (DMEM) medium for 24 hours in 96-well plates. The cells were treated with curcumin (100 μM), or with Cur-[G2]-OH (300 μM), or with the respective vehicle as a control. After 24- or 48-hours post-treatment, the cells were fixed with a mixture of methanol/acetone (1:1) and stained with propidium iodide (0.5 μg/ml), washed and Hoechst 33342 dye was added (0.1 μg/ml) for staining the nuclei. Cells were observed on the Cytation 3® plate reader (BioTek® Instruments, Inc.) using the DAPI (λ=377-447 nm) and Texas Red (λ=586-647 nm) filters, and the images were captured and analyzed with the Gen5 2.06® program.

[5] = tested on: p62, Beclin1 or LC3 in C6 cells; assay: Analysis of autophagy markers by immunofluorescence (simple staining); format: cell-based, rat; conditions: Cur-[G2]-OH 3-150 μM, 6 and 24 hours
Description: Simple staining: 1×10^4 C6 cells/well were cultured with 100 μL of DMEM medium in 96-well plates and incubated 24 hours. Cells were treated with different concentrations of Cur-[G2]-OH (3, 6, 15, 30, 45, 90 and 150 μM), and incubated for 6 and 24 hours. Control cells were replaced only with fresh DMEM medium. The cells were washed with cold PBS and fixed with a mixture of methanol/acetone (1:1) for 5 minutes; they were washed with PBS and incubated with 1% BSA in PBST. Subsequently, they were incubated with the primary antibody (p62, Beclin1 or LC3) at 4° C. overnight. They were washed and incubated with the fluorochrome-conjugated secondary antibody (Abcam® ab150073 Alexa fluor 488) for 1 hour at room temperature. They were washed with PBS and the nucleus stained with Hoechst 33342 (0.1 μg/ml). The images were observed on a Cytation 3® multimodal plate reader and captured and analyzed with the Gen5® 2.06 program using the DAPI (λ=377-447 nm) and GFP (λ=469-525 nm) filters.

[6] = tested on: C6 cells; assay: Sensitization of tumor cells to oxidative stress (FeSO4), MTT cell viability; format: cell-based, rat
Description: C6 cells (1×10^5 cells/well) were seeded in 96 wells plates. At 24 h, a group of cells were treated with FeSO4 at concentrations of 50, 80, 100 and 150 μM or Cur-[G2]-OH at concentrations of 240 or 300 μM and incubated for an additional 24 hours.
Another group of cells were previously incubated by 2 h with the oxidizing agent FeSO4 at concentrations of 50, 80, 100 and 150 μM and subsequently washed for addition to cur-[G2]-OH at concentrations of 240 or 300 μM, continued to incubate until 24 h was completed. A last group of cells, first was treated with Cur-[G2]-OH at concentrations of 240 or 300 μM for 4 h and subsequently changed the medium and FeSO4 was added to concentrations of 50, 80, 100 or 150 μM continuing incubation for 20 hours more.
The colorimetric test based on the reduction of tetrazolium dye MTT (3-(4,5-dimethyltiazol-2-yl)-2,5-diphenyltetrazolium bromide) was used to determine cell viability (Terry L. et al. Cell Viability Assays. May 1, 2013). The formazan crystals were dissolved with a mixture of isopropanol/acetic acid and the absorbance was measured at 540 nm in a microplate reader (Molecular Devices, Sunnyvale, Calif., USA).
The data were statistically analyzed using a one-way ANOVA analysis, and Newman Keuls post-analysis for multiple comparisons (n=3, Mean=SEM).

[7] = tested on: normal cells; assay: Toxicity to normal cells; format: cell-based; conditions: high concentration
[8] = Stability in acidic pH of gastric juices; format: physicochemical
[9] = tested on: Keap1, Nrf2 and p62 in C6 cells; assay: Sequential immunofluorescence, co-location of Keap1-p62, Nrf2-p62 and Keap1-Nrf2; format: cell-based, rat; conditions: Cur-[G2]-OH 6, 45 or 90 µM, 24 hours
Description: Sequential immunofluorescence: For the protein co-location studies of Keap1-p62, Nrf2-p62 and Keap1-Nrf2, 5×10^3 C6 cells/well were grown in half-area 96 well plates and incubated for 24 hours. Subsequently, the cells were treated with Cur-[G2]-OH (6, 45 or 90 µM) and incubated for 24 hours. In control cells only DMEM medium was replaced by fresh medium. Then, cells were washed with cold PBS and fixed with paraformaldehyde (4% in PBS) or with a mix of methanol/acetone, with paraformaldehyde, cells were washed and permeabilized with PBST (this step was not performed on the cells fixed with methanol/acetone). Cells were washed again and blocked in BSA at 1% in PBST.
The cells were incubated in the first primary antibody (Keap1 or Nrf2) at 4° C. overnight, and subsequently washed and re-incubated with the fluorochrome-conjugated secondary antibody (Alexa fluor 488 Abcam® ab150129), in the dark for 1 hour at room temperature. They were washed and again blocked for 30 minutes with goat serum; The serum was removed and the solution of the second respective primary antibody (p62 or Nrf2) was placed. It was incubated at 4° C. overnight. The incubation of the secondary antibodies proceeded in the same manner as described before, but using the Alexa flour 647 antibody from Abcam® (ab150079). The nuclei were stained with Hoechst 33342 solution (0.1 μg/ml) and the images were captured on a Cytation 3® multimodal plate reader (Bio Tek®, Instruments Inc.), with the Gen5 2.06 program using DAPI filters (λ=377-447 nm), GFP (λ=469-525 nm) and Texas Red (λ=586-647 nm).

[10] = tested on: C6 cells; assay: Effect on glutathione (GSH) concentration, GT10 colorimetric test; format: cell-based, rat
Description: Reduced glutathione (GSH) intracellular concentration were measured by a colorimetric test using the GT10 (Oxford Biomedical Research® kit), following the manufacturer's instructions. […] The controls were incubated with DMEM media only. Absorbance was read at 400 nm in Cytation3 ® cell Imaging Multi-mode reader (BioTeck, USA). It is observed that at low concentrations of Cur-[G2]-OH, the synthesis of GSH is induced in C6 cells, but at high concentrations GSH synthesis is inhibited and decrease its concentration in cells.

[11] = Cur-[G2]-OH 300 μM, 24 h, vs untreated cells

## COc1cc(/C=C/C(=O)CC(=O)/C=C/c2ccc(O)c(OC)c2)ccc1O [curcumin, reference compound]
[1]
  DNA fragmentation (agarose gel electrophoresis): DNA fragmentation was only evident in cells treated with curcumin
[2]
  generation of ROS: less effective at producing ROS
  generation of ROS in the presence of N-acetyl Cysteine (NAC): slightly amplified with the use of NAC
[3]; 24 h
  levels of total eIF2-α (immunoblot): increases both the levels of total eIF2-α
  phosphorylation of eIF2-α (p-eIF2-α, immunoblot): increases both the levels of total eIF2-α, and the levels of p-eIF2α
[4]
  nuclear staining / apoptotic morphology (propidium iodide and Hoechst 33342): chromatin condensation (stars), nuclear fragmentation (thin arrows) and apoptotic bodies (arrowheads)

## COc1cc(/C=C/C(=O)/C=C(O)/C=C/c2ccc(OC(=O)C(C)(COC(=O)C(C)(CO)CO)COC(=O)C(C)(CO)CO)c(OC)c2)ccc1OC(=O)C(C)(COC(=O)C(C)(CO)CO)COC(=O)C(C)(CO)CO [Cur-[G-2]-OH]
[1]
  DNA fragmentation (agarose gel electrophoresis): DNA remains packed and does not migrate into the gel
[5]
  expression of Beclin1 (immunofluorescence): induces the expression of proteins Beclin1 and LC3, in a concentration-dependent manner
  expression of LC3 (immunofluorescence): induces the expression of proteins Beclin1 and LC3, in a concentration-dependent manner
  expression of p62 (immunofluorescence): significantly decreasing expression of p62
[6]; C6 cells first exposed to FeSO4 50-150 μM for 2 h, then Cur-[G2]-OH 240 or 300 μM, or administered simultaneously
  cell viability / cytotoxicity in combination with FeSO4 (MTT): This synergism does not exist
[6]; C6 cells pre-incubated with Cur-[G2]-OH 240 or 300 μM for 4 h, then FeSO4 50-150 μM for 20 h
  cell viability / cytotoxicity in combination with FeSO4 (MTT): synergism between Cur-[G-2]-OH and FeSO4
[2]
  generation of ROS: promotes the generation of ROS in a concentration-depending manner
  generation of ROS in the presence of N-acetyl Cysteine (NAC): not substantially modified with the use of an antioxidant (NAC)
[7]
  toxicity to normal cells: not toxic to normal cells at high concentration
[3]; [11]
  expression of Beclin1 (Western blot): increases the expression of Beclin1
  expression of p62 (Western blot): decreases the expression of p62
[3]; Cur-[G2]-OH 300 μM, vs untreated cells
  total levels of the Nrf2 protein (immunoblot): significant decrease in Total levels of the Nrf2 protein
[3]; 24 h
  levels of total eIF2-α (immunoblot): without substantial changes in the levels of total eIF2-α
  phosphorylation of eIF2-α (p-eIF2-α, immunoblot): significant decrease in phosphorylation of eIF2-α
[4]
  nuclear staining / apoptotic morphology (propidium iodide and Hoechst 33342): staining of the nuclei similar to that of the untreated controls
[8]
  stability in acidic pH: instability of Cur-[G-2]-OH in the acidic pH of gastric juices
[9]
  co-location Keap1-Nrf2 in the nucleus: interaction of Keap1 with Nrf2 in this subcellular compartment is observed
  expression of Keap1 in nucleus and cytoplasm (immunofluorescence): significant levels are still detected, both in the nucleus and in the cytoplasm
  expression of Nrf2 in cytoplasm and nucleus (immunofluorescence): rapidly induces the loss of the expression of protein Nrf2 in the cytoplasm and the attenuation of the signal in the nucleus
  p62 localisation and co-location Keap1-p62: promotes the exclusion of p62 from the nucleus and its interaction with Keap1 in the cytoplasm and autophagosomes
[10]; 300 μM, 24 h
  decrease at GSH levels: about 50%
[10]; 300 μM, 48 hours, data not shown
  GSH levels: complete elimination of GSH levels
[10]; intermediate doses 45 and 90 μM, 24 hours
  baseline levels of GSH: causes the baseline levels of GSH to increase considerably
